# In patent publication US20210198365A1, “COMBINATION PRODUCT FOR THE TREATMENT OF CANCER” (Debiopharm International S.A., priority 2017, published 2021):
# Tests used:
# human T cells (PBMCs) = test: Ex vivo T-cell activation in human PBMCs upon CD3/CD28 stimulation; assay type: cell-based; conditions: 10 μM Debio 1143 added to anti-CD3/CD28 stimulation, 24 hours, cytometric analysis
# Procedure: FIG. 1: Ex vivo T-cell activation in human peripheral blood mononuclear cells (PBMCs) upon CD3/CD28 stimulation and Debio 1143 treatment. N=1 healthy donor; values represent means of triplicates±SD. To test the effect of Debio 1143 on activation of human T cells, PBMCs freshly isolated from healthy human donors were stimulated ex vivo with anti-CD3/CD28 antibodies for 24 in the presence of 10 μM Debio 1143, or control treatments without stimulation and Debio 1143 incubation.
# MBT-2 bladder cancer = test: Subcutaneous MBT-2 mouse bladder cancer syngeneic model; assay type: in vivo; conditions: anti-PD-L1 5 mg/kg i.p. bi-weekly; Debio 1143 100 mg/kg p.o. QD1-5; alone or combined, 3 weeks
# Procedure: FIG. 3: Anti-tumor activity of Debio 1143, anti-PD-L1 antibody, and their combination in the subcutaneous MBT-2 mouse bladder cancer syngeneic model.
# The anti-tumor activity of an anti-PD-L1 antibody (5 mg/kg BIW i.p.; clone 10F.9G2, BioXcell) was tested either alone or in combination with Debio 1143 (100 mg/kg QD1-5 p.o.) in MBT-2 immunocompetent syngeneic mouse model of bladder cancer in C3H/HeNCrl mice over 3 weeks (see, for example, Shimazui et al., 2013. Int J Oncol. 42(2):543-8). Each mouse was inoculated subcutaneously at the right flank region with MBT-2 tumor cells (2×10^5) in 0.1 ml of PBS for tumor development. The treatments were started when the mean tumor size reached 101 mm^3 (n=8/group).
compound,measurement,setting,value
"CN[C@@H](C)C(=O)N[C@H]1CN(C(=O)CC(C)C)CC[C@H]2CC[C@@H](C(=O)NC(c3ccccc3)c3ccccc3)N2C1=O [Debio 1143, (5S,8S,10aR)-N-benzhydryl-5-((S)-2-(methylamino)propanamido)-3-(3-methylbutanoyl)-6-oxodecahydropyrrolo[1,2-a][1,5]diazocine-8-carboxamide]",T cell activation (percentage of IFNγ+ CD4+ and IFNγ+ CD8+ T-cells),human T cells (PBMCs),significant increase in T cell activation
same,anti-tumor activity,MBT-2 bladder cancer,weak anti-tumor activity
